From US20250333370A1, “METHOD FOR EXTRACTING 3,5-O-DICAFFEOYLQUINIC ACID FROM HUANGSHAN GONGJU AND ITS APPLICATION IN DRUGS FOR PROTECTING AGAINST ALCOHOLIC LIVER DAMAGE” (Hefei University of Technology, priority 2024, published 2025)

Assays:
AML-12 cells = test: MTT cell survival, toxic effect of 3,5-O-dicaffeoylquinic acid on cells; assay type: cell-based, mouse; conditions: for cell survival rate: AML-12 cells, 24 hours, MTT
Method: AML-12 cells, mouse normal liver cells; 3-(4,5-dimethylthiazol-2-yl)-2,5-diphenyl-2H-tetrazolium-3-bromide (MTT), dimethyl sulfoxide (DMSO), reactive oxygen species (ROS) kit, superoxide dismutase (SOD) kit, malondialdehyde (MDA) kit, glutathione (GSH) kit; high-speed centrifuge, microplate reader, etc.
Logarithmically growing AML-12 cells are seeded into 96-well plates at a density of 0.8×10^5 cells/mL, and 100 μL of cell suspension is added to each well and incubated for 24 hours. In an alcohol treatment group, alcohol (0-1600 mM, DMEM dilution) is added to the incubator for 24 hours. In a 3,5-O-dicaffeoylquinic acid treatment group, 100 μL of 3,5-O-dicaffeoylquinic acid (100-1600 μg/mL, DMEM dilution) is added to the incubator for 24 hours. 120 μL of MTT (1 mg/mL) is added to each well and incubated for 4 h. The reaction solution is discarded; 150 μL DMSO is added, and OD value is measured at a wavelength of 490 nm after shaking for 10 minutes in the dark.

α-glucosidase = conditions: studies have shown; cited from earlier work
[1] = tested on: alcohol-induced AML-12 cells; test: Determination of MDA, SOD, CAT and GSH content (kits); assay type: cell-based, mouse; conditions: 260 mM alcohol
Text: Excessive ROS in cells can cause oxidative reactions in proteins and unsaturated fatty acids. MDA is the final product of the oxidation of polyunsaturated fatty acids and is a marker of lipid peroxidation in cells, which is widely used in studies on oxidative stress. SOD, CAT, and GSH are important antioxidant enzymes in the body and play an important role in the body's systematic resistance to oxidative stress. […] After trypsin digestion and PBS washing, the MDA, SOD, CAT, and GSH content in the cells are detected according to the guidance of corresponding kits.

[2] = tested on: alcohol-induced AML-12 cells; test: Apoptosis and necrosis after alcohol damage (Hoechst, fluorescence microscope and flow cytometer); assay type: cell-based, mouse; conditions: 260 mM alcohol
Method: (§1) AML-12 cells are treated with drugs (100, 200, 400 μg/mL) for 24 h, and then treated with 260 mM alcohol for 24 h. After trypsin digestion and PBS washing, probe from an apoptosis detection kit is added. First, incubation is conducted with 5 μL Hoechst (diluted in PBS) at 0° C. for 20 min. The supernatant is discarded after centrifugation, and the remaining is washed three times and resuspended in PBS. 10 μL of the resuspension is observed under a fluorescence microscope, and is further detected under a flow cytometer.

[3] = studies have shown; cited from earlier work
[4] = tested on: alcohol-damaged AML-12 cells; test: MTT cell survival, ameliorative effect on cell alcohol damage (260 mM alcohol); assay type: cell-based, mouse; conditions: pretreatment 24 hours, then 260 mM alcohol 24 hours
Method: Log-growing AML-12 cells are collected and digested, and then seeded into a 96-well plate at a density of 0.8×10^5 cells/mL per well. After 24 hours of cell proliferation, the control (and model) group is incubated with 100 μL of medium for 48 hours; the 3,5-O-dicaffeoylquinic acid treatment group is incubated with different concentrations of 3,5-O-dicaffeoylquinic acid for 24 hours, and the original medium is discarded; the cells (in model and drug treated group) are incubated in 100 μL of medium containing 260 mM alcohol for 24 hours. The absorbance measurement method is the same as the item 2 above.
Cell survival rate is calculated using the following formula: […]

[5] = tested on: alcohol-induced AML-12 cells; test: ROS content determination (DCFH-DA, fluorescence microscope and flow cytometer); assay type: cell-based, mouse; conditions: 260 mM alcohol
Method: as §1, with “washing, the” for “washing,”, “the ROS” for “an apoptosis detection”, “1 mL of DCFH-DA” for “5 μL Hoechst”, “serum-free DMEM)” for “PBS)”, “37°” for “0°”

[6] = tested on: focal cerebral ischemia-reperfusion injury; conditions: rats; studies have shown; cited from earlier work
[7] = 400 μg/mL pretreatment, fluorescence microscope

## O=C(C=Cc1ccc(O)c(O)c1)OC1CC(O)(C(=O)O)CC(OC(=O)C=Cc2ccc(O)c(O)c2)C1O (single isomer, unassigned) [3,5-O-dicaffeoylquinic acid]
AML-12 cells; 0-800 μg/mL
  cell survival rate: increases significantly
AML-12 cells; 1600 μg/mL, P<0.05
  cell survival rate: decreases significantly
AML-12 cells; concentration range of 0-800 μg/mL
  toxicity to AML-12 cells: non-toxic
α-glucosidase
  α-glucosidase inhibition: inhibits
[1]; 200 μg/mL pretreatment
  MDA content in cells, concentration of best effect: most significant effect
[1]; 400 μg/mL pretreatment, increases from 53.39±2.16 mg/g protein
  GSH content: 82.14±1.67 mg/g protein
[1]; 100-600 μg/mL pretreatment
  activity of CAT in cells: significantly restore
  activity of SOD in cells: significantly restore
[1]; pretreatment at different concentrations
  MDA content in cells: significantly reduces
[2]; [7]
  fluorescence intensity of apoptosis compared with the alcohol-treated group: significantly reduces
[2]; pretreatment with different concentrations, with the increase in drug concentration
  cell survival rate (apoptosis/necrosis flow cytometry): gradually increases
[3]
  antioxidant effects: certain antioxidant effects
[4]; 400 μg/mL, highest cell survival rate
  increase of cell survival rate compared with the model group: 19.90%
[4]; 100-400 g/mL (so in the source)
  survival rate of alcohol-damaged AML-12 cells compared with model group: significantly increase
[5]; [7]
  ROS fluorescence intensity of the cells compared to the alcohol-treated group (model group): significantly reduces
[5]; 100, 200, 400 μg/mL pretreatment, fluorescence microscope
  fluorescence intensity of ROS versus model group, dependence on drug concentration: gradually weakens with the increase of drug concentration
[5]; pretreatment with different concentrations, as the drug concentration increases
  ROS peak fluorescence intensity, flow cytometry: shifts significantly to the right
[6]
  focal cerebral ischemia-reperfusion injury: can mitigate
